Where two headings read alike, the source gives them in different places.

For orientation: IC50 means the concentration that gives 50% inhibition. One may read the solubility as how much of the substance goes into solution per volume. A word on the half-life: it is how long it takes for the measured level to halve.

The target in one series is USP1/UAF1 enzyme (Homo sapiens, UniProt O94782). Nature of the series: USP1/UAF1 deubiquitination assay (ubiquitin-rhodamine 110 substrate). Type of series: biochemical. The note with it: read-out: USP1 IC50 (Ub-Rho). The method, boiled down:
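Cleavage of 150 nM ubiquitin-rhodamine 110 by 0.05 nM USP1/UAF1 was followed as fluorescence (Ex480/Em540, kinetic, 30 min) in Tris-HCl pH 7.8 buffer with EDTA, BSA, DTT and Tween-20. Compounds, top 10 μM, were preincubated with enzyme 10 min; % inhibition against no-enzyme and DMSO wells gave four-parameter IC50s.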

Series [1] has as its system Ub-PCNA levels in the nucleus of ES2 cells (USP1 activity). Nature of the series: ES2 Ub-PCNA immunofluorescence (IF) assay. Type of series: cell-based. The note with it: Homo sapiens, ES-2; ES2 cells, 3 hours, Ub-PCNA immunofluorescence; read-out: USP1 IC50 (Ub-PCNA). Summed up: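 AC50 derived from percent Ub-PCNA-positive nuclei, positivity set by a 95% cutoff from untreated-well intensities. Readout by imaging immunofluorescence (anti-Ub-PCNA, DAPI nuclear mask) after methanol fixation. Compound exposure: 3 h at 37° C, 0.3% DMSO final, on cells plated overnight.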

Series [2] is described as follows: ADME solubility determination in PBS at pH 2.0 and pH 7.4. Type of series: physicochemical. The note with it: phosphate buffered saline, 25 °C, thermodynamic from solid. The method, boiled down: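 Solubility was read by LC-MS/MS on centrifuged supernatants, calibrated to a known-concentration standard and corrected for dilution. Compound, dried down from 10 mM DMSO stock, was equilibrated 24 h at 25° C with shaking in PBS at pH 2.0 or pH 7.4.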

Series [3] in a line: Liver microsomal metabolic stability, rat liver microsomes (RLM). The note with it: rat, liver microsomes, t1/2 (min) in RLM, 1 μM compound, 1 mg/mL microsomes, NADPH. (In general: Liver microsomes are vesicles of endoplasmic reticulum, rich in cytochrome P450 enzymes.)
Series [4] can be described thus: Liver microsomal metabolic stability, human liver microsomes (HLM). The settings on record: human, liver microsomes.
Protocol: Samples were prepared by adding 222.5 μL of a master solution (100 mM phosphate buffer and 1 mg/mL liver microsomes (HLM or RLM)) and 25 μL of a 10 mM NADPH solution to incubation plates, which were then warmed for 10 min. Each compound was separately dissolved in DMSO to prepare 10 mM stock solutions, which were then diluted to 100 μM with acetonitrile. A reaction was started by adding 2.5 μL of the 100 μM solution of each compound to separate incubation plates such that the final concentration of for each compound in each plate was 1 μM.
25 μL aliquots of each sample were taken at 0.5, 5, 10, 15, 20 and 30 minutes, and the reaction was stopped by adding 5 volumes of cold acetonitrile with IS (100 nM alprazolam, 200 nM caffeine and 100 nM tolbutamide). The samples were then centrifuged at 3,220 G for 30 minutes, and 100 μL of the supernatant fluid was mixed with 100 μL of ultra-pure H2O.
The samples were then analyzed by LC-MS/MS. Peak areas were determined from extracted ion chromatograms. Slope values (k) were determined by linear regression of the natural logarithm of the remaining percentage of the compound vs. incubation time curve. The in vitro half-life (in vitro t1/2) was determined from the slope value using the following equation:
[5] abbreviates: pH 2, aqueous buffer, PBS pH 2.0, 25° C., read-out: Solubility at pH 2.0.
[6] abbreviates: pH 7.4, aqueous buffer, PBS pH 7.4, 25° C., read-out: Solubility at pH 7.4.

USP1/UAF1 enzyme, sequence (O94782 whole entry): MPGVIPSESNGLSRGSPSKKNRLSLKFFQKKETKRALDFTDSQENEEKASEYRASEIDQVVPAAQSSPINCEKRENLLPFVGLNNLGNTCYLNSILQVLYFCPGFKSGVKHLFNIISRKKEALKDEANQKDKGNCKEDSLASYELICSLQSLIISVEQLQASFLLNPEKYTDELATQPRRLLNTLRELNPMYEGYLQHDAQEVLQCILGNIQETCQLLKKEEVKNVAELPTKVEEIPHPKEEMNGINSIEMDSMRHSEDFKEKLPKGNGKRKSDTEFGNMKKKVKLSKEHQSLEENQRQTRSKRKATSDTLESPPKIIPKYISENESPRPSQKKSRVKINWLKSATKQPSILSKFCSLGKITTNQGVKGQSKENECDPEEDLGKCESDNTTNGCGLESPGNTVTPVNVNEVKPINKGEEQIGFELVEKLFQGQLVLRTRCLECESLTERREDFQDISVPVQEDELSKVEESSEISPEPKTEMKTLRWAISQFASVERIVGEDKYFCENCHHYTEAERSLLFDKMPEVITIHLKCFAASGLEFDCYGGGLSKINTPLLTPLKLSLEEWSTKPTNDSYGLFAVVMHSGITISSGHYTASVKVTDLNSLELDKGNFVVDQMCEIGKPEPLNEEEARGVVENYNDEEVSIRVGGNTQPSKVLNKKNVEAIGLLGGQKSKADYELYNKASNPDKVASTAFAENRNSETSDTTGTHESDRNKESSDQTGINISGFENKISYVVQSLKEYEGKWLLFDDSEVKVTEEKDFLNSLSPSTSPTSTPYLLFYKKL
USP1/UAF1 enzyme, sequence (Q8TAF3 whole entry partner): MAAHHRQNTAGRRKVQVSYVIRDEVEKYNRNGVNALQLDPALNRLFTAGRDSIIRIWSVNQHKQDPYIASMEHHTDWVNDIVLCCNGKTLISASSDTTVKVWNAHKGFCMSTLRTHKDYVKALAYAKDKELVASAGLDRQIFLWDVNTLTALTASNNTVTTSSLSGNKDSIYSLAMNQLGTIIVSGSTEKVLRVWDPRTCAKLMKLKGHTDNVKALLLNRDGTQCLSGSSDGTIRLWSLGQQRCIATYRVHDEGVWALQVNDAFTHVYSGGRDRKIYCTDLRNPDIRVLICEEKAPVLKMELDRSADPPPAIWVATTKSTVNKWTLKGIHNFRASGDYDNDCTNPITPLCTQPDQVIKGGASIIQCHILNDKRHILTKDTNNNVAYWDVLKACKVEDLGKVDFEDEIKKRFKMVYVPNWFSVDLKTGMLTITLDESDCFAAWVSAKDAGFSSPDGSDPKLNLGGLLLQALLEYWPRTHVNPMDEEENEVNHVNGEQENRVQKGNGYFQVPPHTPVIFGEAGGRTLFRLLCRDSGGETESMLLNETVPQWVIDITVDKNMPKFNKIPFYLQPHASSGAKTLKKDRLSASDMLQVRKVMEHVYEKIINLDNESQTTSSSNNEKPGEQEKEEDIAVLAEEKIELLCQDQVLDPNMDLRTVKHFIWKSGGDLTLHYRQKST

Consider `CC(CF)n1cc(C(F)(F)F)nc1-c1ccc(NC2CCCn3nc(-c4c(OC(F)F)ncnc4C4CC4)cc32)cc1` (stereo not drawn) [Example 249, 2-(4-cyclopropyl-6-(difluoromethoxy)pyrimidin-5-yl)-N-(4-(1-(1-fluoropropan-2-yl)-4-(trifluoromethyl)-1H-imidazol-2-yl)phenyl)-4,5,6,7-tetrahydropyrazolo[1,5-a]pyridin-4-amine], for which the IC50 (on USP1/UAF1 enzyme; in series [1]) was < 0.1 µM throughout. For the same compound, the solubility at 24 h in series [2] (setting [5]) and in series [2] (setting [6]) was < 10 µM in each case. Further, the half-life at 1 μM in series [3] and in series [4] was > 25 min each time.
On to `CCn1cc(C(F)(F)F)nc1-c1ccc(NC2CCCn3nc(-c4c(OC(F)F)ncnc4C4CC4)cc32)cc1` (stereo not drawn) [Example 250, 2-(4-cyclopropyl-6-(difluoromethoxy)pyrimidin-5-yl)-N-(4-(1-ethyl-4-(trifluoromethyl)-1H-imidazol-2-yl)phenyl)-4,5,6,7-tetrahydropyrazolo[1,5-a]pyridin-4-amine], for which the IC50 (at USP1/UAF1 enzyme; in series [1]) was < 0.1 µM each time. The solubility at 24 h in series [2] (setting [5]) and in series [2] (setting [6]) was < 10 µM in each case. Moreover, the half-life at 1 μM in series [3] and in series [4] was > 25 min throughout.
Turning to `CCn1cc(C(F)(F)F)nc1-c1ccc(NC2CCCn3nc(-c4c(Cl)cnn4C(C)C)cc32)cc1C#N` (stereo not drawn) [Example 255, 5-((2-(4-chloro-1-isopropyl-1H-pyrazol-5-yl)-4,5,6,7-tetrahydropyrazolo[1,5-a]pyridin-4-yl)amino)-2-(1-ethyl-4-(trifluoromethyl)-1H-imidazol-2-yl)benzonitrile], the concentration for half-maximal inhibition (IC50) on USP1/UAF1 enzyme was < 0.1 µM; in series [1], 0.1 to 0.5 µM. The solubility at 24 h in series [2] (setting [5]) and in series [2] (setting [6]) was < 10 µM each time. Further, the half-life at 1 μM in series [3] is < 25 min; in series [4] it was > 25 min.
As to `CCn1cc(C(F)(F)F)nc1-c1ccc(N(C)C2CCCn3nc(-c4c(Cl)cnn4C(C)C)cc32)cc1` (stereo not drawn) [Example 258, 2-(4-chloro-1-isopropyl-1H-pyrazol-5-yl)-N-(4-(1-ethyl-4-(trifluoromethyl)-1H-imidazol-2-yl)phenyl)-N-methyl-4,5,6,7-tetrahydropyrazolo[1,5-α]pyridin-4-amine], the IC50 was < 0.1 µM at USP1/UAF1 enzyme and 0.1 to 0.5 µM in series [1]. Also, the solubility at 24 h in series [2] (setting [5]) and in series [2] (setting [6]) was < 10 µM each time. Further, the half-life at 1 μM in series [3] and in series [4] was < 25 min each time.
Regarding `CCn1cc(C(F)(F)F)nc1-c1ccc(OC2CCCn3nc(-c4c(Cl)cnn4C(C)C)cc32)cc1` (stereo not drawn) [Example 261, 2-(4-chloro-1-isopropyl-1H-pyrazol-5-yl)-4-(4-(1-ethyl-4-(trifluoromethyl)-1H-imidazol-2-yl)phenoxy)-4,5,6,7-tetrahydropyrazolo[1,5-α]pyridine], the IC50 (on USP1/UAF1 enzyme; in series [1]) was < 0.1 µM throughout. For the same compound, the solubility at 24 h in series [2] (setting [5]) and in series [2] (setting [6]) was < 10 µM throughout. For the same compound, the half-life at 1 μM in series [3] and in series [4] was > 25 min each time.
Turning to `CCn1cc(C(F)(F)F)nc1-c1ccc(OC2CCCn3nc(-c4c(Cl)cnn4C(C)C)cc32)cc1F` (stereo not drawn) [Example 262], the IC50 is < 0.1 µM at USP1/UAF1 enzyme and 0.1 to 0.5 µM in series [1]. Besides, the solubility at 24 h in series [2] (setting [5]) and in series [2] (setting [6]) was < 10 µM each time. Moreover, the half-life at 1 μM in series [3] and in series [4] was > 25 min throughout.
As for `CCn1cc(C(F)(F)F)nc1-c1ccc(CC2OCCn3nc(-c4c(Cl)cnn4C(C)C)cc32)cc1` (stereo not drawn) [Example 265, 2-(4-chloro-1-isopropyl-1H-pyrazol-5-yl)-4-(4-(1-ethyl-4-(trifluoromethyl)-1H-imidazol-2-yl)benzyl)-6,7-dihydro-4H-pyrazolo[5,1-c][1,4]oxazine], the values for the IC50 (at USP1/UAF1 enzyme; in series [1]) were < 0.1 µM and 0.1 to 0.5 µM, respectively. The solubility at 24 h in series [2] (setting [5]) and in series [2] (setting [6]) was < 10 µM each time. The half-life at 1 μM in series [3] and in series [4] was < 25 min throughout.

For the origin of these results see patent publication US20230219965A1 (KSQ Therapeutics, Inc., priority 2020, published 2023).
